Tested on: SW1271 complex spheroids with HUVEC/MSC, growth, % test/control
Experiment: Anticancer human tumor SW1271 cell line growth inhibition [AhR];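 note: spheroids exposed to agents for 7 days before readout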
Settings: for IC50: curve of first compound; for viability, T/C: stronger effect = lower value
In short: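 Agents were dosed in half-log steps down from roughly clinical Cmax, or from 10 microM where Cmax was unknown, alone and with AhR antagonists. Read-out: percent test/control growth of tumor spheroids containing HUVEC and MSC stromal cells.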

[1] = second compound 0.1 µM, first compound 0.0316 µM
[2] = second compound 0.1 µM, first compound 0.1 µM
[3] = second compound 0.1 µM, first compound 0.316 µM
[4] = second compound 0.1 µM, first compound 1 µM
[5] = second compound 0.1 µM, first compound 3.16 µM
[6] = second compound 0.1 µM, first compound 10 µM
[7] = second compound 0.316 µM, first compound 0.0316 µM
[8] = second compound 0.316 µM, first compound 0.1 µM
[9] = second compound 0.316 µM, first compound 0.316 µM
[10] = second compound 0.316 µM, first compound 1 µM
[11] = second compound 0.316 µM, first compound 3.16 µM
[12] = second compound 0.316 µM, first compound 10 µM
[13] = second compound 1 µM, first compound 0.0316 µM
[14] = second compound 1 µM, first compound 0.1 µM
[15] = second compound 1 µM, first compound 0.316 µM
[16] = second compound 1 µM, first compound 1 µM
[17] = second compound 1 µM, first compound 3.16 µM
[18] = second compound 1 µM, first compound 10 µM
[19] = second compound 3.16 µM, first compound 0.0316 µM
[20] = second compound 3.16 µM, first compound 0.1 µM
[21] = second compound 3.16 µM, first compound 0.316 µM
[22] = second compound 3.16 µM, first compound 1 µM
[23] = second compound 3.16 µM, first compound 3.16 µM
[24] = second compound 3.16 µM, first compound 10 µM
[25] = second compound 10 µM, first compound 0.0316 µM
[26] = second compound 10 µM, first compound 0.1 µM
[27] = second compound 10 µM, first compound 0.316 µM
[28] = second compound 10 µM, first compound 1 µM
[29] = second compound 10 µM, first compound 3.16 µM
[30] = second compound 10 µM, first compound 10 µM

| Structure (SMILES) | IC50 (second compound 0.1 µM) [µM] | IC50 (second compound 0.316 µM) [µM] | IC50 (second compound 1 µM) [µM] | IC50 (second compound 3.16 µM) [µM] | IC50 (second compound 10 µM) [µM] | viability, T/C [1] [%] | viability, T/C [2] [%] | viability, T/C [3] [%] | viability, T/C [4] [%] | viability, T/C [5] [%] | viability, T/C [6] [%] | viability, T/C [7] [%] | viability, T/C [8] [%] | viability, T/C [9] [%] | viability, T/C [10] [%] | viability, T/C [11] [%] | viability, T/C [12] [%] | viability, T/C [13] [%] | viability, T/C [14] [%] | viability, T/C [15] [%] | further results |
| --- | --- | --- | --- | --- | --- | --- | --- | --- | --- | --- | --- | --- | --- | --- | --- | --- | --- | --- | --- | --- | --- |
| Nc1ccccc1NC(=O)c1ccc(CNC(=O)OCc2cccnc2)cc1 + Cc1ccccc1N=Nc1ccc(NC(=O)c2ccnn2C)c(C)c1 | 1.86 | 2.77 | 2.11 | 1.74 | 1.46 | 76.7 | 135 | 91 | 62.1 | 41.5 | 13.6 | 90.2 | 103 | 93.8 | 86 | 45.3 | 18 | 101 | 100 | 90.7 | viability, T/C [16]: 63.1%; viability, T/C [17]: 43.7%; viability, T/C [18]: 19.9%; viability, T/C [19]: 119%; viability, T/C [20]: 120%; viability, T/C [21]: 90.2%; viability, T/C [22]: 64.3%; viability, T/C [23]: 36.5%; viability, T/C [24]: 23.7%; viability, T/C [25]: 89%; viability, T/C [26]: 94%; viability, T/C [27]: 86.6%; viability, T/C [28]: 52.6%; viability, T/C [29]: 41.2%; viability, T/C [30]: 22.8% |
| O=C(C=Cc1cccc(S(=O)(=O)Nc2ccccc2)c1)NO + Cc1ccccc1N=Nc1ccc(NC(=O)c2ccnn2C)c(C)c1 | 0.941 | 1.43 | 0.763 | 1.55 | 1.86 | 86 | 87.1 | 61.9 | 54.3 | 26.5 | 17.8 | 84.3 | 91 | 64.6 | 59.8 | 35.5 | 18.9 | 105 | 98.6 | 68.5 | viability, T/C [16]: 48.1%; viability, T/C [17]: 23.1%; viability, T/C [18]: 28.4%; viability, T/C [19]: 84.4%; viability, T/C [20]: 94%; viability, T/C [21]: 86.8%; viability, T/C [22]: 57.5%; viability, T/C [23]: 36.7%; viability, T/C [24]: 22.3%; viability, T/C [25]: 104%; viability, T/C [26]: 71.2%; viability, T/C [27]: 88.2%; viability, T/C [28]: 57.6%; viability, T/C [29]: 38.3%; viability, T/C [30]: 26.1% |
| O=C(c1cc(Cc2n[nH]c(=O)c3ccccc23)ccc1F)N1CCN(C(=O)C2CC2)CC1 + Cc1ccccc1N=Nc1ccc(NC(=O)c2ccnn2C)c(C)c1 | > 10 | > 10 | > 10 | > 10 | > 10 | 82.5 | 101 | 98.3 | 91.4 | 88.4 | 78.9 | 106 | 104 | 102 | 98.7 | 96.3 | 90.8 | 79.5 | 116 | 104 | viability, T/C [16]: 92.5%; viability, T/C [17]: 114%; viability, T/C [18]: 98.3%; viability, T/C [19]: 94.3%; viability, T/C [20]: 109%; viability, T/C [21]: 104%; viability, T/C [22]: 81.9%; viability, T/C [23]: 99.2%; viability, T/C [24]: 100%; viability, T/C [25]: 89.4%; viability, T/C [26]: 107%; viability, T/C [27]: 108%; viability, T/C [28]: 83.5%; viability, T/C [29]: 89.5%; viability, T/C [30]: 102% |

— PubChem BioAssay AID1919017 (Molecular Pharmacology Branch, DTP, NCI, 2023)
